Test system: dermal fibroblasts
Assay: De novo hyaluronan molecular weight ([3H]-glucosamine incorporation, gel filtration)
Format: cell-based, human
Conditions: PEP005 0.01-10 μg/ml, presence or absence of TGF-β1, day 1 and day 3
Experimental: Hyaluronan molecular weight sizing, following dermal fibroblast synthesis, was performed as previously described (Meran et al, 2008; Simpson et al, 2009). Dermal fibroblasts were seeded in 6-well tissue culture plates, in PEP005-free, Fibroblast-Serum Containing Medium (2 ml), at 1.5×10^5 cells/well. Dermal fibroblasts were maintained at 37° C., in a 5% CO2/95% air atmosphere, for 48 h, prior to washing in phosphate buffered saline (PBS, 2×2 ml) and maintenance in serum-free, Fibroblast-Serum Containing Medium (2 ml), for a further 48 h. At 48 h, the serum-free, Fibroblast-Serum Containing Medium was replenished with serum-free, Fibroblast-Serum Containing Medium (2 ml), containing 0 μg/ml, 0.01 μg/ml, 0.1 μg/ml, 1 μg/ml, 10 μg/ml or 100 μg/ml PEP005, +/−TGF-β1 (10 ng/ml) (three culture wells per PEP005 concentration), in addition to [^3H]-glucosamine (20 μCi/ml, G.E. Healthcare). The dermal fibroblasts were maintained at 37° C., in a 5% CO2/95% air atmosphere, for 24 h or 72 h. […]
Aliquots (20 μl×3) of each Extract fraction were transferred into scintillation vials, followed by the addition of 70% ethanol (600 μl) and liquid scintillant (4 ml). Scintillation vials were vortexed and [^3H]-incorporation quantified using a Packard Tri-Carb 1900CA Liquid Scintillation Analyzer (Perkin Elmer), with values obtained being expressed as disintegrations per minute (dpm). […]

C/C=C(/C)C(=O)O[C@H]1C(C)=C[C@]23C(=O)[C@@H](C=C(CO)[C@@H](O)[C@]12O)[C@H]1[C@@H](C[C@H]3C)C1(C)C [PEP005, ingenol-3-angelate]
molecular weight of hyaluronan synthesized: predominantly of high (>1.5×10^6 Da) and medium (<1.5×10^6-4×10^5 Da) molecular weight
